How the values were obtained:
Type in all cases: cell-based
[1] = tested on: PANC-1 human pancreatic carcinoma cells; test: Cell cycle analysis (propidium iodide flow cytometry), PANC-1; details: PANC-1, 24 hr
Procedure: PANC-1 human pancreatic carcinoma cells were used as cell cycle targets to compare the effects on perturbation of the cell cycle of leiodermatolide and the known mitotic spindle inhibitor Paclitaxel. Cell cycle analyses were performed as follows: PANC-1 […] were incubated in tissue culture media (TCM=Roswell Park Memorial Institute (RPMI) medium 1640 supplemented with 100 U/ml penicillin, […] 1-glutamine, 18 mM HEPES, 0.05 mg/ml gentamicin, 100 μg/ml sodium pyruvate, 2.5 mg/ml glucose and 10% fetal bovine serum) at 37° C. in 5% CO2 in air in the presence or absence of varying concentrations of leiodermatolide or Paclitaxel for 24 hours.
(§1) Cells were harvested, fixed in ethanol and stained with 0.02 mg/ml of propidium iodide (P.I.) together with 0.1 mg/ml of RNAse A. This procedure permeabilizes cells and allows entry of P.I. to stain DNA (propidium iodide also stains double stranded RNA, so RNAse is included in the preparation to exclude this possibility). Stained preparations were analyzed on a BD Sciences Calibur Flow Cytometer with 488 nm excitation. Fluorescence measurements and resulting DNA histograms were collected from at least 3,000 P.I. stained cells at an emission wavelength of 690 nm. Raw histogram data was further analyzed using a cell cycle analysis program (Multicycle, Phoenix Flow Systems).

[2] = tested on: A549 human lung adenocarcinoma cells; test: Cell cycle analysis (propidium iodide flow cytometry), A549; details: A549, 24 hr
Procedure: A549 human lung adenocarcinoma cells were used as cell cycle targets to compare the effects on perturbation of the cell cycle of leiodermatolide to the known mitotic spindle inhibitor Paclitaxel. Cell cycle analyses were performed as follows: A549 human lung adenocarcinoma cells were incubated in tissue culture media (TCM=Roswell Park Memorial Institute (RPMI) medium 1640 supplemented with 100 U/ml penicillin, […] 1-glutamine, 18 mM HEPES, 0.05 mg/ml gentamicin and 10% fetal bovine serum) at 37° C. in 5% CO2 in air in the presence or absence of varying concentrations of leiodermatolide or Paclitaxel for 24 hours.
as §1

[3] = tested on: PANC-1 human pancreatic cancer; test: MTT antiproliferative/cytotoxicity assay, PANC-1; details: 72-h exposure
Procedure: (§2) Leiodermatolide was analyzed as to its effects on the proliferation of a panel of tumor cell lines including both cell lines. The cell lines tested include: A549 human lung adenocarcinoma, NCI-ADR-RES (Formerly MCF-7/ADR) human cancer, PANC-1 human pancreatic cancer, DLD-1 human colorectal carcinoma, and P388 murine leukemia cell lines. P388 cells were obtained from Dr. R. Camalier, National Cancer Institute Bethesda, Md., and A549, PANC-1, DLD-1 and NCI-ADR-RES cells were obtained from American Type Culture Collection, Rockville, Md. […]
(§3) A volume of 75 μl of warm growth media containing 5 mg/ml MTT is added to each well, cultures returned to the incubator, and left undisturbed for 3 hours. To spectrophotometrically quantitate formation of reduced formazan, plates are centrifuged (900×g, 5 minutes), culture fluids removed by aspiration, and 200 μl of acidified isopropanol (2 ml concentrated HCl/liter isopropanol) added per well. The absorbance of the resulting solutions is measured at 570 nm with a plate reader (BMG labtech NOVOStar). […] The two standard drug controls (indicated above) are included in each assay to monitor the drug sensitivity of each of the cell lines and IC50 values are determined for each drug-cell combination.

[4] = tested on: NCI-ADR-RES (Formerly MCF-7/ADR) human cancer; test: MTT antiproliferative/cytotoxicity assay, NCI-ADR-RES; details: 72-h exposure, read-out: NCIADR-RES IC50
Procedure: as §2, §3

[5] = tested on: A549 human lung adenocarcinoma; test: MTT antiproliferative/cytotoxicity assay, A549; details: 72-h exposure
Procedure: as §2, §3

P388 murine leukemia = test: MTT antiproliferative/cytotoxicity assay, P388; details: Mus musculus, 48-hr exposure
Procedure: as §2, §3

[6] = tested on: DLD-1 human colorectal carcinoma; test: MTT antiproliferative/cytotoxicity assay, DLD-1; details: 72-h exposure
Procedure: as §2, §3

[7] = 10 nM, listed as leiodermatolide
[8] = 100 nM, listed as leiodermatolide

Compound: CC(=O)O[C@H]1C(=O)[C@@]2(C)[C@H]([C@H](OC(=O)c3ccccc3)[C@]3(O)C[C@H](OC(=O)[C@H](O)[C@@H](NC(=O)c4ccccc4)c4ccccc4)C(C)=C1C3(C)C)[C@]1(OC(C)=O)CO[C@@H]1C[C@@H]2O [Paclitaxel, reference compound]
- G1 (percentage of cells) ([1]; 100 nM): 10%
- G2/M (percentage of cells) ([1]; 100 nM): 88%
- S (percentage of cells) ([1]; 100 nM): 2%
- G1 (percentage of cells) ([1]; 100 nM, listed as paclitaxel): 9.76%
- G2/M (percentage of cells) ([1]; 100 nM, listed as paclitaxel): 88.36%
- S (percentage of cells) ([1]; 100 nM, listed as paclitaxel): 1.88%
- G1 (percentage of cells) ([2]; 100 nM): 2%
- G2/M (percentage of cells) ([2]; 100 nM): 98%
- S (percentage of cells) ([2]; 100 nM): 0%
- G1 (percentage of cells) ([2]; 100 nM, listed as taxol): 2.18%
- G2/M (percentage of cells) ([2]; 100 nM, listed as taxol): 97.82%
- S (percentage of cells) ([2]; 100 nM, listed as taxol): 0.00%

Compound: CCC1OC(=O)CC(O)(C/C=C/C=C(\C)C2OC(=O)CC/C=C(\C)C(C)C(O)C(C)C(OC(N)=O)/C=C\C=C/C2C)C1C (centres unmarked) [Leiodermatolide]
- G1 (percentage of cells) ([1]; 1 nM): 47.88%
- G2/M (percentage of cells) ([1]; 1 nM): 28.93%
- S (percentage of cells) ([1]; 1 nM): 23.18%
- G1 (percentage of cells) ([1]; 10 nM): 12.04%
- G2/M (percentage of cells) ([1]; 10 nM): 83.45%
- S (percentage of cells) ([1]; 10 nM): 4.51%
- G1 (percentage of cells) [1, 7]: 12%
- G2/M (percentage of cells) [1, 7]: 83%
- S (percentage of cells) [1, 7]: 4%
- G1 (percentage of cells) ([1]; 100 nM): 16.55%
- G2/M (percentage of cells) ([1]; 100 nM): 77.45%
- S (percentage of cells) ([1]; 100 nM): 6.00%
- G1 (percentage of cells) [1, 8]: 16%
- G2/M (percentage of cells) [1, 8]: 77%
- S (percentage of cells) [1, 8]: 6%
- G1 (percentage of cells) ([1]; 1000 nM): 29.54%
- G2/M (percentage of cells) ([1]; 1000 nM): 63.92%
- S (percentage of cells) ([1]; 1000 nM): 6.53%
- IC50 [3]: 5 nM
- IC50 [4]: 233 nM
- IC50 [5]: 3.3 nM
- G1 (percentage of cells) ([2]; 1 nM): 55.75%
- G2/M (percentage of cells) ([2]; 1 nM): 13.40%
- S (percentage of cells) ([2]; 1 nM): 30.85%
- G1 (percentage of cells) ([2]; 10 nM): 2.97%
- G2/M (percentage of cells) ([2]; 10 nM): 97.03%
- S (percentage of cells) ([2]; 10 nM): 0.00%
- G1 (percentage of cells) [2, 7]: 3%
- G2/M (percentage of cells) [2, 7]: 97%
- S (percentage of cells) [2, 7]: 0%
- G1 (percentage of cells) ([2]; 100 nM): 1.70%
- G2/M (percentage of cells) ([2]; 100 nM): 98.30%
- S (percentage of cells) ([2]; 100 nM): 0.00%
- G1 (percentage of cells) [2, 8]: 2%
- G2/M (percentage of cells) [2, 8]: 98%
- S (percentage of cells) [2, 8]: 0%
- G1 (percentage of cells) ([2]; 1000 nM): 4.99%
- G2/M (percentage of cells) ([2]; 1000 nM): 95.01%
- S (percentage of cells) ([2]; 1000 nM): 0.00%
- IC50 (P388 murine leukemia): 3.3 nM
- IC50 [6]: 8.3 nM

— patent US7626043B2, “Antiproliferative activity of the leiodermatolide class of macrolides” (Florida Atlantic University Board of Trustees, priority 2006, dated 2009)
